This is an account of results in ChEMBL document CHEMBL4304769, “Discovery of Potent and Orally Bioavailable Inverse Agonists of the Retinoic Acid Receptor-Related Orphan Receptor C2” (ACS Med Chem Lett, 2019).

The structures appear in SMILES notation.

One data set in a line: in vivo. Conditions: Wistar Han, rat, po, 2 mg/kg.
Compound `CCS(=O)(=O)c1ccc(C(NC(=O)Cc2ccccc2)C(=O)Nc2ccc(C(O)(C(F)(F)F)C(F)(F)F)cc2)cc1` (configuration not stated) came in with a bioavailability at 24 h of 5%.

As for `CCS(=O)(=O)c1ccc(C(NC(C)=O)C(=O)Nc2cc(-c3cc(C#N)cc(F)c3OC)cs2)cc1` (racemic), the bioavailability at 24 h was 19%.

The nature of another data set: in vitro. To be noted: human, Caco-2.
As to `CCS(=O)(=O)c1ccc(C(NC(C)=O)C(=O)Nc2cc(-c3cc(C#N)cc(F)c3OC)cs2)cc1` (racemic), the Papp is 0.3 ×10⁻⁶ cm/s.

A short description of a further data set: in vivo. Conditions: Wistar Han, rat, iv, 1 mg/kg.
With `CCS(=O)(=O)c1ccc(C(NC(=O)Cc2ccccc2)C(=O)Nc2ccc(C(O)(C(F)(F)F)C(F)(F)F)cc2)cc1` (configuration not stated), the Vd at 24 h turned out to be 10.2 L/kg.

Compound `CCS(=O)(=O)c1ccc(C(NC(C)=O)C(=O)Nc2cc(-c3cc(C#N)cc(F)c3OC)cs2)cc1` (racemic) registered a Vd at 24 h of 0.34 L/kg.

A short description of another data set: physchem. To be noted: 1-octanol/PBS buffer, pH 7.4.
`CCS(=O)(=O)c1ccc(C(NC(=O)Cc2ccccc2)C(=O)Nc2ccc(C(O)(C(F)(F)F)C(F)(F)F)cc2)cc1` (configuration not stated): the pH-dependent lipophilicity (logD) was 4.

Take `CCS(=O)(=O)c1ccc(CC(=O)Nc2ccc(C(C)(C)C#N)cc2)cc1`: the logD is 2.5.

For `CCS(=O)(=O)c1ccc(C(NC(=O)OC)C(=O)Nc2ccc(C(O)(C(F)(F)F)C(F)(F)F)cc2)cc1` (configuration not stated), the logD came to 3.6.

On to `CCS(=O)(=O)c1ccc(C(NC(=O)CC(C)C)C(=O)Nc2ccc(C(O)(C(F)(F)F)C(F)(F)F)cc2)cc1` (configuration not stated), for which the logD is greater than 4.

As for `CCS(=O)(=O)c1ccc(C(NC(=O)Cc2ccnnc2)C(=O)Nc2ccc(C(O)(C(F)(F)F)C(F)(F)F)cc2)cc1` (configuration not stated), the pH-dependent lipophilicity (logD) amounted to 2.9.

`CCS(=O)(=O)c1ccc(CC(=O)Nc2ccc([C@H](O)C(F)(F)F)cc2)cc1`: the logD is 2.1.

Take `CCS(=O)(=O)c1ccc(C(NC(=O)Cc2ccncn2)C(=O)Nc2ccc(C(O)(C(F)(F)F)C(F)(F)F)cc2)cc1` (configuration not stated): the logD worked out at 2.8.

`CCS(=O)(=O)c1ccc(CC(=O)Nc2ccc(C(C)C)cc2)cc1` registered a logD of 3.5.

On to `CCS(=O)(=O)c1ccc(C(NC(=O)Cc2ccccn2)C(=O)Nc2ccc(C(O)(C(F)(F)F)C(F)(F)F)cc2)cc1` (configuration not stated), for which the logD was found to be 3.3.

Take `CCS(=O)(=O)c1ccc(CC(=O)Nc2cccc(-c3cccc(Cl)c3)c2)cc1`: the logD was greater than 4.

Compound `CCS(=O)(=O)c1ccc(C(NS(C)(=O)=O)C(=O)Nc2ccc(C(O)(C(F)(F)F)C(F)(F)F)cc2)cc1` (configuration not stated) gave a logD of 2.7.

As to `CCS(=O)(=O)c1ccc(C(NC(=O)c2ccccc2)C(=O)Nc2ccc(C(O)(C(F)(F)F)C(F)(F)F)cc2)cc1` (configuration not stated), the pH-dependent lipophilicity (logD) is greater than 4.

As for `CCS(=O)(=O)c1ccc(C(NC(=O)NC)C(=O)Nc2ccc(C(O)(C(F)(F)F)C(F)(F)F)cc2)cc1` (configuration not stated), the logD turned out to be 3.2.

On to `CCS(=O)(=O)c1ccc(CC(=O)Nc2cc(-c3cccc(Cl)c3)cs2)cc1`, for which the logD is greater than 4.1.

`CCS(=O)(=O)c1ccc(C(NC(=O)CC(C)(C)O)C(=O)Nc2ccc(C(O)(C(F)(F)F)C(F)(F)F)cc2)cc1` (configuration not stated) registered a logD of 3.3.

The compound `CCS(=O)(=O)c1ccc(C(N)C(=O)Nc2ccc(C(O)(C(F)(F)F)C(F)(F)F)cc2)cc1` (configuration not stated) yielded a logD of 2.8.

In turn, `CCS(=O)(=O)c1ccc(C(NC(=O)Cc2cccnn2)C(=O)Nc2ccc(C(O)(C(F)(F)F)C(F)(F)F)cc2)cc1` (configuration not stated) returned a logD of 2.5.

`CCS(=O)(=O)c1ccc(C(NC(=O)CCc2ccccc2)C(=O)Nc2ccc(C(O)(C(F)(F)F)C(F)(F)F)cc2)cc1` (configuration not stated) came in with a logD greater than 4.

`CCS(=O)(=O)c1ccc(CC(=O)Nc2ccc(C(C(F)(F)F)C(F)(F)F)cc2)cc1` displayed a pH-dependent lipophilicity (logD) of 3.9.

Compound `CCS(=O)(=O)c1ccc(CC(=O)Nc2ccc(-c3cccc(Cl)c3)cc2)cc1` came in with a logD greater than 4.

On to `CCS(=O)(=O)c1ccc(CC(=O)Nc2ccc(C(O)(C(F)(F)F)C(F)(F)F)cc2)cc1`, for which the logD was 3.6.

The compound `CCS(=O)(=O)c1ccc(CC(=O)Nc2ccc(C(OC)(C(F)(F)F)C(F)(F)F)cc2)cc1` yielded a logD of 4.
